“And” between values parts separate entries of the source, which are not always exact repeats. Equal entries are not always repeated.
Columns and labels:
rd10 mice [1] = settings: mouse, in vivo, ip, 40 mg/kg
[2] = system: retinal explants of rd10 mice; experiment: Ex-vivo retinal cultures of rd10 mice; parameters: species or system mouse; settings: rd10 P21 to P24; 40 μM for 72 h; vs contralateral untreated explant
Experimental: After removal of the eyes, all non-relevant tissue was removed from the neuroretina, which was then placed, photoreceptors upside down, in Millicell support inserts (Millipore, #PICM0RG50) and maintained in DMEM with 1 μM insulin (SIGMA, #I2643) for 72 h at 37 °C in a 5% CO2 atmosphere. Where indicated, retinas were incubated with 40 μM CA77 for the indicated times. The retinas were then washed twice with phosphate-buffered saline (PBS), fixed overnight in 4% paraformaldehyde (w/v) in 0.1 M phosphate buffer (pH 7.4) and processed. Retinas were separated along dorsoventral axis and nasal half was used for whole-mounts and temporal half was used for 12 µm cryosections.
Immunostainings were performed overnight at 4 °C using antibodies against visual (rod) arrestin and cone arrestin after initial permeabilization with 2% Triton X-100 for 1 h at RT and subsequent incubation with blocking solution (10% normal goat serum, 0.25% Triton X-100 in PBS). The retinas were then washed and incubated for 1 h with Alexa 568 or 647 (Invitrogen, #A-11004, #A32728), counterstained with DAPI (1 µg/mL, Sigma, # D9542), mounted in Fluoromount-G (Cultek, #100-01), and visualized by confocal microscopy in an SP5 confocal microscope (TCS SP5; Leica Microsystems). […]

rd10 mice [3] = experiment: rd10 mice, single intravitreal injection, retina histology; type: in vivo, mouse
Experimental: C57BL/6 J mice wild-type (WT) and homozygous for the Pde6 mutation (rd10 mouse model of retinal degeneration) were obtained from The Jackson Laboratory and experiments were performed at the age indicated in each part of the study. C57BL/6 KFERQ-Dendra mice were generated by back-crossing FVB KFERQ-Dendra mice with wild-type C57BL/6 mice for 8 generations. Both male and female animals were used in this study in equally distribution groups. However, results from both sexes were pooled, because of absence of significant differences in any of the parameters analyzed after statistical analysis with a mixed model of two-way ANOVA sex and treatment as independent variables and the corresponding measure as dependent variable. All animals were housed in a barrier-controlled facility (19–23 °C 30–60% relative humidity; 12 h light/dark cycle) with ad libitum access to standard chow pellets (protein 19 gm%/carbohydrate 67 gm%/fat 4 gm%) and water. For animal administration of CA compounds, a formula containing 30% PEG 400 (Sigma, #8.0745), 65% of 5% glucose solution, 5% Tween 80 (Sigma, #P1754) was used to dissolve them. CA compounds were prepared freshly by adding 5% DMSO and sonicating for 1 h. Treatment of KFERQ-Dendra mice with the CA compounds was done at 4 months of age by i.p. daily injection of 30 mg/kg bw or vehicle for three consecutive days and tissues collected 6 h after the last injection. In the case of rd10 mice, animals were daily injected from P18 to P25 with CA77 (40 mg/kg bw). In the case of intravitreal administration, a single intravitreal injection was applied at P18 with CA77 (40 µM) in DMSO/PBS and the contralateral eye was injected with PBS and DMSO at same concentration. At P26, mice were sacrificed and eyes fixed overnight with 4% PFA (Sigma, #P6148) in PBS at 4 °C for immunofluorescence or retinas dissected and immediately frozen for biochemistry. Distribution of animals in the vehicle or treatment group was done randomly. ICR (CD-1) outbred 3 months old male mice from ENVIGO were used for the pharmacokinetic studies (see pharmacokinetic section for housing and handling details). All animal studies and procedures complied with ethical regulations, were performed in accordance with the European Union guidelines and the ARVO Statement for the Use of Animals in Ophthalmic and Vision Research and were approved by the Institutional Animal Care and Use Committee at the Albert Einstein College of Medicine, the CSIC Bioetica Comite and approved by the Comunidad de Madrid, PROEX232/17.
12 μm cryosections and immunofluorescence in retinal sections[10] after orienting retinas with a dorsal mark, so comparisons were performed taking into account the precise retinal area. Primary antibodies used in this study were visual (rod) arrestin, cone arrestin, Opsin R/G, transducin, GFAP, N-CoR1. Sections were visualized by confocal microscopy (TCS SP5; Leica Microsystems).
For ONL thickness quantification, DAPI images were taken at 40X in a fluorescence microscope Multidimensional system Leica AF6000 LX coupled to DMI600B microscope and Hamamatsu CCD 9100-O2 camera. At least two sections per animal were analyzed, preferably central sections. Eight images per retina equally distributed along the retina were acquired. Three measures were taken per image and ratio ONL/INL quantified with ImageJ tools. Leica LAS-X (3.7.4.23463) was used for image acquisition and ImageJ (v.2.1.0) was used for image processing. For OS length measures, fixed positions common to all pictures were considered and OS length was measured using ImageJ straight line tool.
Eyes were enucleated, put in a plate with cold PBS and an incision was made under the microscope to let the fixative enter into the eye. […]

NIH3T3 = experiment: Cell viability after paraquat (CellTiter-Blue); type: cell-based, mouse
[4] = rd10 mice, 7 days after a single intravitreal injection (40 µM) at P18
[5] = rd10 mice, individual values and Mean CA77

Compound	ERG amplitude of b-mixed, b-phot and flicker waves (rd10 mice [1])	cones (cone arrestin-positive) in retinal explants [2]	number of rods (rod arrestin-positive) in retinal explants [2]	ONL/INL (rd10 mice [3]; Fig. S9c, individual animals)	ONL/INL, mean (rd10 mice [3]; Fig. S9c, mean, veh 0.676)	%functional cones (rd10 mice [3]; Fig. S9d, individual animals)	%functional cones, mean (rd10 mice [3]; Fig. S9d, mean, veh 10.94) [%]	gliosis (rd10 mice [3]; [4])	retinal ONL/INL ratio (rd10 mice [3]; [4])	Fig. 7a, retinal measurement by eccentricity, eccentricity 1 (rd10 mice [3]; [5])	Fig. 7a, retinal measurement by eccentricity, eccentricity 2 (rd10 mice [3]; [5])	Fig. 7a, retinal measurement by eccentricity, eccentricity 3 (rd10 mice [3]; [5])	Fig. 7a, retinal measurement by eccentricity, eccentricity 4 (rd10 mice [3]; [5])	Fig. 7a, retinal measurement by eccentricity, eccentricity -1 (rd10 mice [3]; [5])	Fig. 7a, retinal measurement by eccentricity, eccentricity -2 (rd10 mice [3]; [5])	Fig. 7a, retinal measurement by eccentricity, eccentricity -3 (rd10 mice [3]; [5])	protection against paraquat, compound added after the insult (NIH3T3; 2 μM or 10 μM, compared with AR7)	cell death by paraquat, compound administered before the insult (NIH3T3; 12 h treatment with 2 μM or 10 μM before PQ)
CC(=O)Nc1ccc(C2=Nc3ccc(Cl)cc3OC2)cc1 [CA77]	significantly higher amplitude	higher preservation for cones	significant preservation of the number of rods	0.8086 and 0.8292 and 0.9847	0.8578	28.972% and 50% and 24.2991% and 28.7037% and 13.3929% and 16.5289% and 21.8182%	26.24	significatively improved	thicker retinal ONL/INL ratio	0.3526	0.3984	0.5851	0.8477	0.3423	0.3489	0.5902		
Clc1ccc2c(c1)OCC(c1ccc(-c3ccccc3)cc1)=N2 [CA39]																	significantly higher protection than AR7	reduced cell death

From article PMC9304322, “Targeting retinoic acid receptor alpha-corepressor interaction activates chaperone-mediated autophagy and protects against retinal degeneration” (Nature Communications, 2022)
